Results on 1 compound are retold here after US9533965B2, “2-arylbenzofuran-7-formamide compounds, preparation method and use thereof” (SHANGHAI INSTITUTE OF MATERIA MEDICA, CHINESE ACADEMY OF …, priority 2012, dated 2017).

One assay has as its target T1, PARP3 (Homo sapiens, UniProt Q9Y6F1).
T1 sequence (Q9Y6F1 1-533): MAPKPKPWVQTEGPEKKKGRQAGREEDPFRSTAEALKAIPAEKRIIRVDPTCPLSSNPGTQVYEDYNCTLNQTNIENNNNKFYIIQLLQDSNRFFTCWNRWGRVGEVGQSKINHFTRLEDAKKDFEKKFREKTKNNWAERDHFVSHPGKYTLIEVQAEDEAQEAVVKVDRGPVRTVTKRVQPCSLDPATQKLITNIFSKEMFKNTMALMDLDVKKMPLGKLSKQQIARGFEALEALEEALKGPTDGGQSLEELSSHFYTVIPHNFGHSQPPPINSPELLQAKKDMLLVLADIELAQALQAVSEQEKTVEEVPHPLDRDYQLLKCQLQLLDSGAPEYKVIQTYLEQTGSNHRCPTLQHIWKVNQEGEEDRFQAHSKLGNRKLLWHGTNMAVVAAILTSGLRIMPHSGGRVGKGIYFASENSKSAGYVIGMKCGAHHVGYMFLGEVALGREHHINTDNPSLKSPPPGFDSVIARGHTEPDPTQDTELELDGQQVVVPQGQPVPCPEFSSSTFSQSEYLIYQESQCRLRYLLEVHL
Briefly: Enzymatic inhibition on the PARP family members (ELISA), PARP3. It is filed as biochemical. The conditions noted are these: PARP family panel. Background: ELISA stands for enzyme-linked immunosorbent assay.

The next assay deals with T2, TNKS1 (Homo sapiens, UniProt O95271).
T2 sequence (O95271 1-1327): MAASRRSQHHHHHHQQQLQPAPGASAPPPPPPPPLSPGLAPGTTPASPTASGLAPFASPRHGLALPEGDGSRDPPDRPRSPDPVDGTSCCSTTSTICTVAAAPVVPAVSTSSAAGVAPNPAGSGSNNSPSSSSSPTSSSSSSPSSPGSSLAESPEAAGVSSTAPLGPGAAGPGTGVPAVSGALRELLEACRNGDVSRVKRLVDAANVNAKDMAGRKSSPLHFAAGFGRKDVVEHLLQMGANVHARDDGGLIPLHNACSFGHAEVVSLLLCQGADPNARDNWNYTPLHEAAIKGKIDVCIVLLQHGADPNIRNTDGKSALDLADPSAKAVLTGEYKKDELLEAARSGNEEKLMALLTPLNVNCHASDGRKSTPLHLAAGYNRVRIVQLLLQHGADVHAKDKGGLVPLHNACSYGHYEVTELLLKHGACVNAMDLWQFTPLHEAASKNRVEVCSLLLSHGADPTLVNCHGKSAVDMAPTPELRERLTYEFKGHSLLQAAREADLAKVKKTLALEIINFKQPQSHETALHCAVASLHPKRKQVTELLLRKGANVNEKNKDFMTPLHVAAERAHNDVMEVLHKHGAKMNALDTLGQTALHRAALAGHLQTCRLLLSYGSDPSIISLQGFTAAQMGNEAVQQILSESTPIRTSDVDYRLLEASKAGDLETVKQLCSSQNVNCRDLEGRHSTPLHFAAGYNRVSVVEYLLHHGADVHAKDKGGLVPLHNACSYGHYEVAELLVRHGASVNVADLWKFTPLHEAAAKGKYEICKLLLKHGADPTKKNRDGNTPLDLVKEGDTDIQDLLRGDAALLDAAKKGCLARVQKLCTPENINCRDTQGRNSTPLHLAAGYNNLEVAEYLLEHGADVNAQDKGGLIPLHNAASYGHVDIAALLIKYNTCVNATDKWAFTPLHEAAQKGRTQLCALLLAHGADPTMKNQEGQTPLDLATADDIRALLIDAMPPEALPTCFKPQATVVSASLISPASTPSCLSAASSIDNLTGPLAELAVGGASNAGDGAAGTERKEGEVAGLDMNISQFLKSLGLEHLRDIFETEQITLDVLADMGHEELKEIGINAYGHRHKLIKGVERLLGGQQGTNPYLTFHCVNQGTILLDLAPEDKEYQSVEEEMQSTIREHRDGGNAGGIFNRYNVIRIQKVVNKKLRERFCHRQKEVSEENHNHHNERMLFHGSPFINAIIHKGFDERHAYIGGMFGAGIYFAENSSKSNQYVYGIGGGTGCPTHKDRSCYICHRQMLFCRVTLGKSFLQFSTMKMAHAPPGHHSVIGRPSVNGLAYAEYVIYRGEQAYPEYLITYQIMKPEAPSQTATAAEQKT
Briefly: Enzymatic inhibition on the PARP family members (ELISA), TNKS1. Type of assay: biochemical. The conditions noted are these: PARP family panel, 30° C.

Another assay deals with PARP1 (Homo sapiens, UniProt P09874). Nature of the assay: PARP1 enzymatic inhibition at molecular levels (ELISA). The conditions noted are these: ELISA IC50, PARP1 enzyme, molecular level.
Sequence of PARP1 (P09874 whole entry): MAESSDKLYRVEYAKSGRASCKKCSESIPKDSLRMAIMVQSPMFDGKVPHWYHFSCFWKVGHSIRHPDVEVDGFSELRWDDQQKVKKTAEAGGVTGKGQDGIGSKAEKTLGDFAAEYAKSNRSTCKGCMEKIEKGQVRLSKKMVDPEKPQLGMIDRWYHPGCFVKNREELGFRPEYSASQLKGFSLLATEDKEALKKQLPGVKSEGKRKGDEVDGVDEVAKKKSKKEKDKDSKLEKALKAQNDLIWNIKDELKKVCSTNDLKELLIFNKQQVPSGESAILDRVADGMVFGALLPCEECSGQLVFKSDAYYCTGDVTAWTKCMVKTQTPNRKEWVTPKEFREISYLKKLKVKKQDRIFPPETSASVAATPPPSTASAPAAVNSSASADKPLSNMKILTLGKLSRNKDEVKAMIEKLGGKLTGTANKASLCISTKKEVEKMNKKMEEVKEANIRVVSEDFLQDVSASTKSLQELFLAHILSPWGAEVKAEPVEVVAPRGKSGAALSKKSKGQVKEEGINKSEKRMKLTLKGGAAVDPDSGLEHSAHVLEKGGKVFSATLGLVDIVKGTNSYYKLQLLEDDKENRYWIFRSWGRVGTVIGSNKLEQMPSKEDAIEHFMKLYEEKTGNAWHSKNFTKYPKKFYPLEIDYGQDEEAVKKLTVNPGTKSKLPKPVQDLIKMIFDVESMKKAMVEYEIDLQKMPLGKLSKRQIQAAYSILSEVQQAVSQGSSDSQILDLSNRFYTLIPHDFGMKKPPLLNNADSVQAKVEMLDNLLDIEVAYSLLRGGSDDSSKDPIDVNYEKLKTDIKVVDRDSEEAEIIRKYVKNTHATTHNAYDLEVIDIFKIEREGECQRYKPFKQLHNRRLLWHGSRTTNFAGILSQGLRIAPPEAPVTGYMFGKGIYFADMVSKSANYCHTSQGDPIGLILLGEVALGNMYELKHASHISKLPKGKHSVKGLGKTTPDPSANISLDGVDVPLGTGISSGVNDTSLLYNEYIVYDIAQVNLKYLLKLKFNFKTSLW

For the compound `CNCc1ccc(-c2cc3cc(F)cc(C(N)=O)c3o2)cc1` [compound 5b, 5-fluoro-2-{4-[(methylamino)methyl]phenyl}benzofuran-7-carboxamide], the IC50 (commonly the concentration at which inhibition is half-maximal) at PARP3 was > 10 µM; at TNKS1, 1.6 µM; against PARP1, 0.0448 ± 0.0125 µM.
